Measurements published in article PMC12673578 (Molecular Pharmaceutics, 2025).
“And” between values parts separate entries of the source, which are not always exact repeats. Identical values can stand only once. Like-named read-outs stand apart in the source and are kept apart here.

Legend:
[1] = test system: CYP3A; conditions: ketoconazole coadministered, literature value, cited from earlier work
[2] = biological target: rCES1 (Homo sapiens, UniProt P23141); conditions: rCES1 0.1 mg/mL, clopidogrel 0.9–240 μM, 30 min, 37 °C
Chain of rCES1 (P23141 18-567): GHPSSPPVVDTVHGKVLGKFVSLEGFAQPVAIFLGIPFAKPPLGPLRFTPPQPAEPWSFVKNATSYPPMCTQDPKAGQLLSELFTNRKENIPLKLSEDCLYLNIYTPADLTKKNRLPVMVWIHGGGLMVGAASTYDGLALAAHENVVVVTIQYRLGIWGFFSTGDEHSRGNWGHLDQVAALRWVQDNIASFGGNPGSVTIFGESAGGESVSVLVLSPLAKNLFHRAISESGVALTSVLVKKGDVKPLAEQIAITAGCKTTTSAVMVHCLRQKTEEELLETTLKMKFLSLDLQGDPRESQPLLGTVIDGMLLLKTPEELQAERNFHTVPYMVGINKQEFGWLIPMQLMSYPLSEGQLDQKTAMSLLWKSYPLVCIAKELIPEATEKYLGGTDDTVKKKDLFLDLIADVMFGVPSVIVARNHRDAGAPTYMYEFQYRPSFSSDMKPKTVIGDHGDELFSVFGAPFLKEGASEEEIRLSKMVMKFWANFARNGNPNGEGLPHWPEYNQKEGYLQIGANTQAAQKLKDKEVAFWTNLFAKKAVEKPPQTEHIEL
Experimental: (§5) The samples were analyzed using an LC-MS/MS system consisting of microflow LC and Xevo-TQ-XS MS systems (Waters, Milford, MA). An Acquity UPLC HSS T3 C18 column (1.8 mm, 1 mm × 100 × 100 mm) equipped with a guard column (Vanguard precolumn, 1.8 mm, 2.1 × 5 mm) was used for the analysis. […] The mass spectrometer was operated in multiple reaction monitoring (MRM) and positive ionization modes with a cone voltage of 30 V using an electrospray ionization source.

[3] = pooled fractions 0.5 mg/mL, clopidogrel 150 μM
Experimental: The protein concentration was maintained at 0.5 mg/mL, and all incubations were conducted in triplicates in a water bath shaker at 37 °C with incubation volumes of 100 μL each. […] Samples were centrifuged at 10,000g for 5 min (4 °C), and the supernatants were collected and diluted 10-fold using a 75:25 (0.1% formic acid in ACN/0.1% formic acid in water) solution before being transferred to an LC-MS vial for analysis.
as §5

[4] = test system: CES1 G143E variant; conditions: second cited study; literature value; cited from earlier work
[5] = following oral administration; literature value; cited from earlier work
[6] = biological target: rCYP2C9 (Homo sapiens, UniProt P11712)
Experimental: (§1) The samples were analyzed using an LC-MS/MS system consisting of microflow LC and Xevo-TQ-XS MS systems (Waters, Milford, MA). An Acquity UPLC HSS T3 C18 column ([…]) equipped with a guard column (Vanguard precolumn, […], 2.1 × 5 mm) was used for the analysis. […] The mass spectrometer was operated in multiple reaction monitoring (MRM) and positive ionization modes with a cone voltage of 30 V using an electrospray ionization source.
(§2) The relative expression factor (REF) for the rCYPs and rCES was calculated by using eq . 2 REF=CYPorCEScontentinpooledHLM(permgprotein)/CYPorCES content in the recombinant system (per mg protein)
(§3) 3 Rateofmetabolism=Vmax×S/Km+S
(§4) The CLint, total for each isoform was then multiplied with the respective REF values, and fraction metabolized (f m) is calculated as shown in eq . 4 fm,CYPi=ScaledCLint,total,2−oxo−clopidogrelCYPi/ScaledactivityCYPall×100

[7] = biological target: rCYP2B6 (Homo sapiens, UniProt P20813)
Chain of rCYP2B6 (P20813 whole entry): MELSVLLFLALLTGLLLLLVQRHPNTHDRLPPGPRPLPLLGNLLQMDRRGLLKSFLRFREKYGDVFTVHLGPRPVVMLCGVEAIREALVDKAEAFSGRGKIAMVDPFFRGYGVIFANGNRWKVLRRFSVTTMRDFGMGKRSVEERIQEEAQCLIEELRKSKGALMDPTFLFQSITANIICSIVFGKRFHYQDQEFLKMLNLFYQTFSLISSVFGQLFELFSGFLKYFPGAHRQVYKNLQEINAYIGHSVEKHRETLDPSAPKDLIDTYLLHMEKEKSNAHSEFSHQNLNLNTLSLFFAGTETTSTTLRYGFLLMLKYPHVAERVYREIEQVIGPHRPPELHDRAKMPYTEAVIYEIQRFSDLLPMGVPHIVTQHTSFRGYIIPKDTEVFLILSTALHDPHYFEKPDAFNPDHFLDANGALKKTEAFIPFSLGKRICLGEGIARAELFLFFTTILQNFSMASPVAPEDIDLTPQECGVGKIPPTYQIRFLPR
Experimental: as §1, §2, §3, §4

[8] = biological target: rCYP1A2 (Homo sapiens, UniProt P05177)
Experimental: as §1, §2, §3, §4

[9] = biological target: rCYP2C19 (Homo sapiens, UniProt P33261)
Experimental: as §1, §2, §3, §4

[10] = substrate: COC(=O)[C@H](c1ccccc1Cl)N1CCc2sccc2C1; assay: not read; conditions: 5 min, 37 °C
[11] = other: rCYP1A2, clopidogrel 0.3–160 μM
[12] = other: rCYP2C19, clopidogrel 0.3–160 μM
[13] = other: rCYP2C9, clopidogrel 0.3–160 μM

Molecule: CC(=O)N1CCN(c2ccc(OCC3COC(Cn4ccnc4)(c4ccc(Cl)cc4Cl)O3)cc2)CC1 (centres unmarked) [Ketoconazole, ketoconazole]
- Reduction of AUC0–24 of clopidogrel active metabolite ([1]; after 75 mg clopidogrel maintenance dose (MD)): 29%
- Reduction of AUC0–24 of clopidogrel active metabolite ([1]; after 300 mg clopidogrel loading dose (LD)): 22%
- Decrease of C max of the active metabolite ([1]; following LD): 48%
- Decrease of C max of the active metabolite ([1]; following MD): 61%

Molecule: COC(=O)[C@H](c1ccccc1Cl)N1CCc2sccc2C1 [clopidogrel]
- K m for CCA formation [2]: 14.92 ± 4.8 µM
- CCA formation rate normalized with CES1 content (pmol/min/pmol CES1) in HLS9 versus HLM [3]: two-fold higher
- Rate of formation of 2-oxo-clopidogrel in HLM (pmol/min/mg protein) versus HLS9 [3]: two-fold higher
- Rate of formation of CCA in HLM (pmol/min/mg protein) versus HLS9 [3]: two-fold higher
- Increase in platelet aggregation inhibition in G143E carriers compared to noncarriers [4]: 19%
- Fraction of the drug absorbed [5]: approximately 50%
- f m ([6]; fraction of 2-oxo-clopidogrel formation by CYP2C9): 40.3%
- K m of 2-oxo-clopidogrel formation ([6]; rCYP2C9): 20.6 µM
- CLint [7]: 15.8 μL/mg protein/min
- CLint *REF [7]: 0.09 μL/mg protein/min
- f m [7]: 1.5%
- CLint (V max/K m) ([7]; recombinant enzyme): 1.8 μL/pmol P450/min
- f m ([8]; fraction of 2-oxo-clopidogrel formation by CYP1A2): 0.6%
- K m of 2-oxo-clopidogrel formation ([8]; rCYP1A2): 17.0 µM
- f m ([9]; fraction of 2-oxo-clopidogrel formation by CYP2C19): 0.1%
- K m of 2-oxo-clopidogrel formation ([9]; rCYP2C19): 13.8 ± 5.5 µM and 13.8 µM

B1: rCYP1A2 (Homo sapiens) (protein)
chain: MALSQSVPFSATELLLASAIFCLVFWVLKGLRPRVPKGLKSPPEPWGWPLLGHVLTLGKNPHLALSRMSQRYGDVLQIRIGSTPVLVLSRLDTIRQALVRQGDDFKGRPDLYTSTLITDGQSLTFSTDSGPVWAARRRLAQNALNTFSIASDPASSSSCYLEEHVSKEAKALISRLQELMAGPGHFDPYNQVVVSVANVIGAMCFGQHFPESSDEMLSLVKNTHEFVETASSGNPLDFFPILRYLPNPALQRFKAFNQRFLWFLQKTVQEHYQDFDKNSVRDITGALFKHSKKGPRASGNLIPQEKIVNLVNDIFGAGFDTVTTAISWSLMYLVTKPEIQRKIQKELDTVIGRERRPRLSDRPQLPYLEAFILETFRHSSFLPFTIPHSTTRDTTLNGFYIPKKCCVFVNQWQVNHDPELWEDPSEFRPERFLTADGTAINKPLSEKMMLFGMGKRRCIGEVLAKWEIFLFLAILLQQLEFSVPPGVKVDLTPIYGLTMKHARCEHVQARLRFSIN
- kcat [10, 11]: 0.258 s⁻¹
- kcat/Km [10, 11]: 0.9 μL/pmol P450/min

B2: rCYP2C19 (Homo sapiens) (protein)
chain: MDPFVVLVLCLSCLLLLSIWRQSSGRGKLPPGPTPLPVIGNILQIDIKDVSKSLTNLSKIYGPVFTLYFGLERMVVLHGYEVVKEALIDLGEEFSGRGHFPLAERANRGFGIVFSNGKRWKEIRRFSLMTLRNFGMGKRSIEDRVQEEARCLVEELRKTKASPCDPTFILGCAPCNVICSIIFQKRFDYKDQQFLNLMEKLNENIRIVSTPWIQICNNFPTIIDYFPGTHNKLLKNLAFMESDILEKVKEHQESMDINNPRDFIDCFLIKMEKEKQNQQSEFTIENLVITAADLLGAGTETTSTTLRYALLLLLKHPEVTAKVQEEIERVIGRNRSPCMQDRGHMPYTDAVVHEVQRYIDLIPTSLPHAVTCDVKFRNYLIPKGTTILTSLTSVLHDNKEFPNPEMFDPRHFLDEGGNFKKSNYFMPFSAGKRICVGEGLARMELFLFLTFILQNFNLKSLIDPKDLDTTPVVNGFASVPPFYQLCFIPV
- kcat [10, 12]: 0.36 s⁻¹
- kcat/Km [10, 12]: 1.6 μL/pmol P450/min

B3: rCYP2C9 (Homo sapiens) (protein)
chain: MDSLVVLVLCLSCLLLLSLWRQSSGRGKLPPGPTPLPVIGNILQIGIKDISKSLTNLSKVYGPVFTLYFGLKPIVVLHGYEAVKEALIDLGEEFSGRGIFPLAERANRGFGIVFSNGKKWKEIRRFSLMTLRNFGMGKRSIEDRVQEEARCLVEELRKTKASPCDPTFILGCAPCNVICSIIFHKRFDYKDQQFLNLMEKLNENIKILSSPWIQICNNFSPIIDYFPGTHNKLLKNVAFMKSYILEKVKEHQESMDMNNPQDFIDCFLMKMEKEKHNQPSEFTIESLENTAVDLFGAGTETTSTTLRYALLLLLKHPEVTAKVQEEIERVIGRNRSPCMQDRSHMPYTDAVVHEVQRYIDLLPTSLPHAVTCDIKFRNYLIPKGTTILISLTSVLHDNKEFPNPEMFDPHHFLDEGGNFKKSKYFMPFSAGKRICVGEALAGMELFLFLTSILQNFNLKSLVDPKNLDTTPVVNGFASVPPFYQLCFIPV
- kcat [10, 13]: 0.387 s⁻¹
- kcat/Km [10, 13]: 1.1 μL/pmol P450/min
